Patent EP0579169B1, “Alkylenediamine derivatives” (NIPPON CHEMIPHAR CO., LTD., priority 1992, dated 1994)

How the values were obtained:
[1] = system: rhythmic bladder contraction; assay: Test for inhibition of urinating contraction of bladder (rhythmic bladder contraction, anesthetized rat, saline infusion into the closed bladder); format: in vivo; conditions: i.v., urethane-anesthetized male Wistar rat, control (physiological saline) 1.6 min.
Method: (I) Test for Inhibition of Urinating Contraction of Bladder
With respect to inhibition of the urinating contraction of bladder, performance of the compound of the present invention was evaluated by the following method.
A male Wistar rat was anesthetized with urethane (1.5 g/kg, s.c.) and fixed on its back on a board. Into the trachea of the rat, a tracheotomy tube was inserted in order to insure an airway, and then midline incisura was carried out to denude the bladder. Subsequently, a small opening was produced on the top of the bladder and the urine was exhausted, and then a polyethylene cannula (diameter: approx. 1 mm) was inserted into the bladder. The urethra and the ureter were tied up to make the bladder a closed system.
By means of an infusion pump, phsiological saline was poured into the bladder of rat at a rate of 0.05 ml/min. induce the rhythmic bladder contraction. Subsequently, intravesical pressure was measured by a pressure transducer and recorded on a pen-writing recorder. The test compound was dissolved in physiological saline and then administered into the femoral vein through a polyethylene cannula.
Performance for inhibiting the urinary bladder contraction was evaluated by measuring the period (inhibiting period) in which the rhythmic bladder contraction was inhibited. As the medicament, each of the compounds obtained in Examples was used.

[2] = Toxicity, LD50 by the up-and-down method; format: in vivo; conditions: mouse, in vivo, iv
Text: (§1) With respect to toxicity of the compounds of the invention, each LD50 (mg/kg) measured by the up-and-down method is also set forth in Table 1.

[3] = system: Urinary bladder strips; assay: Effect on isolated urinary bladder smooth muscle (contraction elicited by acetylcholine or norepinephrine); set-up: species or system male Japanese white rabbits; conditions: rabbit urinary bladder strips, Krebs solution 37°C; pretreatment five minutes before, concentration 1x10^-5 to 3x10^-5 (unit not given)
Method: (II) Effect on Isolated Urinary Bladder Smooth Muscle
Urinary bladder strips were obtained from male Japanese white rabbits (weight: 2.00-2.80 kg). Each strip was suspended in an organ bath containing Krebs solution. The organ bath was maintained at 37°C and constantly gassed with carbogen. Cumulative concentration-response curves of acetylcholine and norepinephrine were obtained.
The compound to be tested (compound of Example 2 (i.e., 5-benzyl-3-(3-morpholino-1-phenylpropyl)-1,3-oxazolidin-2-one fumarate) was introduced into the Krebs solution five minutes prior to the introduction of acetylcholine or norepinephrine to elicit the contractive action.
Therefore, it has been confirmed that the tested compound depresses the bladder contraction not by acting on the peripheral nerves system but on the central nurves system.

[4] = system: mouse; assay: Toxicity, LD50 by the up-and-down method; format: in vivo; conditions: i.v.
Text: as §1

Question: What does the source list for `O=C(O)/C=C/C(=O)O.O=C1OC(Cc2ccccc2)CN1C(CCN1CCOCC1)c1ccccc1` (single isomer, unassigned) [Example 2, 5-Benzyl-3-(3-morpholino-1-phenylpropyl)-1,3-oxazolidin-2-one fumarate]?
Answer: Period (inhibiting period in which the rhythmic bladder contraction was inhibited) ([1]; dose 8 mg/kg, fumarate): 5.4 min; LD50 [2]: 76 mg/kg; action on the contraction caused by acetylcholine [3]: did not give any effective action; action on the contraction caused by norepinepherine [3]: did not give any effective action

Question: With `O=C(O)/C=C/C(=O)O.O=C1OC(Cc2ccccc2Br)CN1C(CCN1CCOCC1)c1ccccc1` (single isomer, unassigned) [Example 13, 5-(2-Bromophenyl)methyl-3-(3-morpholino-1-phenylpropyl)-1,3-oxazolidin-2-one fumarate] as the molecule, how does the “Period (inhibiting period in which the rhythmic bladder contraction was inhibited)” value ([1]; dose 5 mg/kg) read?
Answer: The value was 6.5 min.

Question: What about the LD50 [2] of the same molecule?
Answer: Its LD50 is 48 mg/kg.

Question: What does the source list for `O=C(O)/C=C/C(=O)O.O=C1OC(CCc2ccccc2Br)CN1C(CCN1CCOCC1)c1ccccc1` (single isomer, unassigned) [Example 25, 5-[2-(2-bromophenyl)ethyl]-3-(3-morpholino-1-phenylpropyl)-1,3-oxazolidin-2-one fumarate]?
Answer: Period (inhibiting period in which the rhythmic bladder contraction was inhibited) ([1]; dose 8 mg/kg): 7.5 min; LD50 [2]: 79 mg/kg

Question: Which “Period (inhibiting period in which the rhythmic bladder contraction was inhibited)” value ([1]; dose 8 mg/kg) does the source give for `O=C(O)/C=C/C(=O)O.O=C1OC(CCc2ccccc2Cl)CN1C(CCN1CCOCC1)c1ccccc1` (single isomer, unassigned) [Example 27, 5-[2-(2-Chlorophenyl)ethyl]-3-(3-morpholino-1-phenylpropyl)-1,3-oxazolidin-2-one fumarate] here?
Answer: The value was 8.0 min.

Question: And the LD50 [2]?
Answer: The LD50 was 75 mg/kg.

Question: For `CS(=O)(=O)O.O=C1OC(Cc2cccc3ccccc23)CN1C(CCN1CCOCC1)c1ccccc1` (single isomer, unassigned) [Example 46, 5-(1-Naphthyl)methyl-3-(3-morpholino-1-phenylpropyl)-1,3-oxazolidin-2-one mesylate], which “Period (inhibiting period in which the rhythmic bladder contraction was inhibited)” value ([1]; dose 5 mg/kg) is on record?
Answer: Its value is 6.0 min.

Question: And the LD50 [2]?
Answer: Its LD50 is greater than 20 mg/kg.

Question: With `O=C(O)/C=C/C(=O)O.O=C1OC(CCc2ccccc2)CN1C(CCN1CCOCC1)c1ccccc1` (single isomer, unassigned) [Example 50, 3-(3-Morpholino-1-phenylpropyl)-5-(2-phenylethyl)-1,3-oxazolidin-2-one fumarate] as the molecule, how does the “Period (inhibiting period in which the rhythmic bladder contraction was inhibited)” value ([1]; dose 5 mg/kg) read?
Answer: The value was 7.5 min.

Question: And the LD50 [2]?
Answer: Its LD50 is 45 mg/kg.

Question: Which results are given for `O=C(O)/C=C/C(=O)O.O=C1OC(Cc2cccs2)CN1C(CCN1CCOCC1)c1ccccc1` (single isomer, unassigned) [Example 55, 3-(3-Morpholino-1-phenylpropyl)-5-(2-thenyl)-1,3-oxazolidin-2-one fumarate]?
Answer: Period (inhibiting period in which the rhythmic bladder contraction was inhibited) ([1]; dose 8 mg/kg): 4.6 min; LD50 [2]: 84 mg/kg

Question: With `O=C(O)/C=C/C(=O)O.O=C1OC(Cc2cccs2)CN1C(CCN1CCOCC1)c1ccccc1` (single isomer, unassigned) [Example 56, 3-(3-Morpholino-1-phenylpropyl)-5-(2-thenyl)-1,3-oxazolidin-2-one fumarate] as the molecule, how does the “Period (inhibiting period in which the rhythmic bladder contraction was inhibited)” value ([1]; dose 11 mg/kg) read?
Answer: Its value is 4.7 min.

Question: What about the LD50/mouse ([4]; fumarate) of the same molecule?
Answer: The LD50/mouse was 111 mg/kg.

Question: With `O=C1OC(Cc2ccccc2)CN1C(CCN1CCOCC1)c1cccs1` (single isomer, unassigned) [Example 61, 5-Benzyl-3-[3-morpholino-1-(2-thienyl)propyl]-1,3-oxazolidin-2-one] as the molecule, how does the “Period (inhibiting period in which the rhythmic bladder contraction was inhibited)” value ([1]; dose 6 mg/kg) read?
Answer: Its value is 6.5 min.

Question: What about the LD50 [2] of the same molecule?
Answer: Its LD50 is 59 mg/kg.

Question: With `O=C1OC(Cc2ccccc2)CN1C(CCN1CCOCC1)c1cccs1` (single isomer, unassigned) [Example 62, 5-Benzyl-3-[3-morpholino-1-(2-thienyl)propyl]-1,3-oxazolidin-2-one] as the molecule, how does the “Period (inhibiting period in which the rhythmic bladder contraction was inhibited)” value ([1]; dose 6 mg/kg) read?
Answer: The value was 7.2 min.

Question: And the LD50/mouse [4]?
Answer: The LD50/mouse was 63 mg/kg.

Question: Which “Period (inhibiting period in which the rhythmic bladder contraction was inhibited)” value ([1]; dose 14 mg/kg) does the source give for `CC(C)CC1COC(=O)N1C(CCN1CCOCC1)c1ccccc1.O=C(O)/C=C/C(=O)O` (single isomer, unassigned) [Example 67, 4-Isobutyl-3-(3-morpholino-1-phenylpropyl)-1,3-oxazolidin-2-one fumarate] here?
Answer: The value was 3.5 min.

Question: And the LD50 [2]?
Answer: The LD50 was 137 mg/kg.

Question: For `O=C(O)/C=C/C(=O)O.O=C1OCC(Cc2ccccc2)N1C(CCN1CCOCC1)c1ccccc1` (single isomer, unassigned) [Example 69, 4-Benzyl-3-(3-morpholino-1-phenylpropyl)-1,3-oxazolidin-2-one fumarate], which “Period (inhibiting period in which the rhythmic bladder contraction was inhibited)” value ([1]; dose 8 mg/kg) is on record?
Answer: The value was 6.6 min.

Question: What about the LD50 [2] of the same molecule?
Answer: The LD50 was 76 mg/kg.

Question: Which results are given for `O=C(O)/C=C/C(=O)O.O=C1COC(Cc2ccccc2Br)CN1C(CCN1CCOCC1)c1ccccc1` (single isomer, unassigned) [Example 70, 2-(2-Bromobenzyl)-4-(3-morpholino-1-phenylpropyl)-5-morpholinone fumarate]?
Answer: Period (inhibiting period in which the rhythmic bladder contraction was inhibited) ([1]; dose 6 mg/kg): 1.5 min; LD50 [2]: > 60 mg/kg

Question: What does the source list for `O=C(O)/C=C/C(=O)O.O=C1OC(Cc2ccccc2)CN1C(CCN1CCOCC1)c1ccccc1` (single isomer, unassigned; (+)) [Example 4, (+)-5-Benzyl-3-(3-morpholino-1-phenylpropyl)-1,3-oxazolidin-2-one fumarate]?
Answer: Period (inhibiting period in which the rhythmic bladder contraction was inhibited) ([1]; dose 8 mg/kg, fumarate): 3.8 min; LD50/mouse ([4]; fumarate): 77 mg/kg

Question: Which “Period (inhibiting period in which the rhythmic bladder contraction was inhibited)” value ([1]; dose 8 mg/kg, fumarate) does the source give for `O=C(O)/C=C/C(=O)O.O=C1OC(Cc2ccccc2)CN1C(CCN1CCOCC1)c1ccccc1` (single isomer, unassigned; (-)) [Example 3, (-)-5-Benzyl-3-(3-morpholino-1-phenylpropyl)-1,3-oxazolidin-2-one fumarate] here?
Answer: Its value is 6.0 min.

Question: And the LD50/mouse ([4]; fumarate)?
Answer: Its LD50/mouse is 49 mg/kg.
